Source: ChEMBL document CHEMBL1201862, “PubChem BioAssay data set” (2004)
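Results reflect a 48-hour exposure of cells in 96-well plates to compound at five concentrations. The concentration for 50% growth inhibition is given as GI50.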 Activity calls are given as the source filed them. Cut-off read from the data, not from the text of the source: active = GI50 up to about 1.1 µM and inactive = higher.

Tests used:
Assay in all cases: NCI anticancer screen, dose series, 48 h
UO-31 = test system: UO-31
CAKI-1 = test system: CAKI-1
K562 = test system: K562
CCRF-CEM = test system: CCRF-CEM
MOLT-4 = test system: MOLT-4
TK-10 = test system: TK-10
RPMI-8226 = test system: RPMI-8226
LOX IMVI = test system: LOX IMVI
MDA-MB-435 = test system: MDA-MB-435
DU-145 = test system: DU-145
MDA-N = test system: MDA-N
SF-539 = test system: SF-539
HT-29 = test system: HT-29
SK-MEL-2 = test system: SK-MEL-2
NCI-H460 = test system: NCI-H460
A549 = test system: A549
IGROV-1 = test system: IGROV-1
SN12C = test system: SN12C
SK-OV-3 = test system: SK-OV-3
786-0 = test system: 786-0

Measured: GI50

CCCCCn1c(=O)c2c(=O)[nH][nH]c2c2ccccc21
inactive: UO-31 > 100 µM | CAKI-1 > 100 µM | K562 > 100 µM | CCRF-CEM > 100 µM | MOLT-4 > 100 µM | TK-10 > 100 µM | RPMI-8226 > 100 µM | LOX IMVI > 100 µM | MDA-MB-435 > 100 µM | DU-145 > 100 µM | MDA-N > 100 µM | SF-539 > 100 µM | HT-29 > 100 µM | SK-MEL-2 > 100 µM | NCI-H460 > 100 µM | A549 > 100 µM | IGROV-1 > 100 µM | SN12C > 100 µM | SK-OV-3 > 100 µM | 786-0 > 100 µM
